Legend:
adenylyl cyclase (basal) = experiment: Enzyme assay adenylyl cyclase (basal); assay type: biochemical, rat
Description: (§1) The enzyme assays provided below will be familiar to those skilled in the art.
(§2) Analysis and Expression of Results: The results are expressed as a percent of control specific activity ((measured specific activity/control specific activity)×100) obtained in the presence of the test compounds.

Neuropeptide Y (ns) = experiment: Binding Y (ns) (ag); set-up: species or system rat
Procedure: (§3) Radioligand binding assay methods utilized to measure the activity of compounds of the invention will be familiar to those skilled in the art. In each assay case, the assay components such as, for example, the cell-type, ligand, reference compound and the like, will be familiar to practitioners of such an assay.
(§4) Analysis and Expression of Results: Compounds of the invention were tested in the biochemical assays and percent inhibition of specific binding was determined. The specific ligand binding to the receptors is defined as the difference between the total binding and the nonspecific binding determined in the presence of an excess of unlabelled ligand. The results are expressed as a percent inhibition of control specific binding (100−((measured specific binding/control specific binding)×100)) obtained in the presence of test compounds.

MAO-A (h) = molecular target: T1, MAO-A (h) (Homo sapiens, UniProt P21397); experiment: Enzyme assay MAO-A (h); assay type: biochemical; details: read-out: % Inhibition of Control Values @ 10 μM
T1 construct: human placenta; from tissue; host or cells: human placenta
T1 sequence (P21397 1-527): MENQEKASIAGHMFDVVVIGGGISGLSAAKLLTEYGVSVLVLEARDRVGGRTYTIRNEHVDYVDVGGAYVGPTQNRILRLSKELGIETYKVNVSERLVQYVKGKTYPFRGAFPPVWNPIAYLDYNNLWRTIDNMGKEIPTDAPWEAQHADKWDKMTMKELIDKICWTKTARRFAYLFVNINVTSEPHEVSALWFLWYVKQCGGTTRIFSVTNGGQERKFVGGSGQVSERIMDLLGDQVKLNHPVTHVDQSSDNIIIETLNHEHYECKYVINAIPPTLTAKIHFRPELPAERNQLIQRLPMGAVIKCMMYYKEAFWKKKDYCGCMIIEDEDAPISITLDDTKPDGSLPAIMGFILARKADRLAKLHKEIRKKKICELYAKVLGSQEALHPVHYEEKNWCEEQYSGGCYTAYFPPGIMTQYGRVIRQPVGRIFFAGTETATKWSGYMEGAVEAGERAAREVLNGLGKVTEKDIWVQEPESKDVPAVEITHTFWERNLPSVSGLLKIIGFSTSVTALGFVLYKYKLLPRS
Description: as §1, §2

Adrenergic α2 (ns) = experiment: Binding α2 (ns) (aa); set-up: species or system rat
Procedure: as §3, §4

[1] = [14C]RD162′ radio-HPLC metabolite profile in Pooled Rat Plasma; assay type: in vivo, Sprague Dawley rats; details: [14C]RD162′ 100 mg/kg/day oral, day 7, 4 h
Procedure: The rats were dosed once a day for seven consecutive days; four hours after dosing on the seventh day, plasma was collected from all three rats. The plasma samples were stored at approximately −70° C. or colder.
Positive ion electrospray LC/MS and LC/MS/MS were used to analyze the metabolites.
To prepare the Pooled Rat Plasma for HPLC analysis, approximately 1 g of the plasma sample was combined with acetonitrile (ACN, sample:ACN, 1:3, v:v), vortex mixed, sonicated in cold water, centrifuged, and the supernatants were removed. The extraction was repeated twice and the respective supernatants were combined. […] The combined supernatants were evaporated to dryness and reconstituted in 1 mL of 0.1% formic acid in reverse osmosis (RO) water:ACN: methanol (MeOH, 50:45:5, v:v:v). […] The reconstituted sample was analyzed by HPLC to determine the metabolite profile with fractions collected at 10-second intervals and analyzed by solid scintillation counting.
The prepared samples were analyzed using the following LC/MS/MS conditions: HPLC: Hewlett Packard 1100 series; Mobile Phase: 0.1% formic acid in reverse osmosis water (A) and acetonitrile (B); Column: Agilent Eclipse XDB-C18, 4.6×150 mm, 5 μm; Guard column: Phenomenex Security Guard Cartridge C18, 3×4 mm; Column temperature: 20° C.; Gradient: 20-80% B in 40 min; Flow Rate: 1.5 mL/min.

BLT1 (LTB4) (h) = molecular target: T2, BLT1 (LTB4) (h) (Homo sapiens, UniProt Q15722); experiment: Binding BLT1 (LTB4) (h) (ag); details: read-out: % Inhibition of Control Specific Binding @ 10 μM
T2 construct: expressed in transfected cells; host or cells: CHO cells
T2 sequence (Q15722 whole entry): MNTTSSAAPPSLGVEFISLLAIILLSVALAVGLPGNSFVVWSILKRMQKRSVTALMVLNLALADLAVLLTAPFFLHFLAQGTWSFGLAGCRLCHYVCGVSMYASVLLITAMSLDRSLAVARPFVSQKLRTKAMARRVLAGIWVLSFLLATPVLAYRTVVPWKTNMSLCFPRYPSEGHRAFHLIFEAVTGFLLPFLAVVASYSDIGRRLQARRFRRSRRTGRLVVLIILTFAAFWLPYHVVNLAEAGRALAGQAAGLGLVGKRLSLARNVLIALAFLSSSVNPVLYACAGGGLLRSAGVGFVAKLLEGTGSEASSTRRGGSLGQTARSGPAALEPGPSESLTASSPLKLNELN
Procedure: as §3, §4

Dopamine D2S (h) = molecular target: T3, Dopamine D2S (h) (Homo sapiens, UniProt P14416); experiment: Binding D2S (h) (aa); details: read-out: % Inhibition of Control Specific Binding @ 10 μM
T3 construct: expressed in transfected cells; host or cells: HEK-293 cells
T3 sequence (P14416 1-414 isoform P14416-2): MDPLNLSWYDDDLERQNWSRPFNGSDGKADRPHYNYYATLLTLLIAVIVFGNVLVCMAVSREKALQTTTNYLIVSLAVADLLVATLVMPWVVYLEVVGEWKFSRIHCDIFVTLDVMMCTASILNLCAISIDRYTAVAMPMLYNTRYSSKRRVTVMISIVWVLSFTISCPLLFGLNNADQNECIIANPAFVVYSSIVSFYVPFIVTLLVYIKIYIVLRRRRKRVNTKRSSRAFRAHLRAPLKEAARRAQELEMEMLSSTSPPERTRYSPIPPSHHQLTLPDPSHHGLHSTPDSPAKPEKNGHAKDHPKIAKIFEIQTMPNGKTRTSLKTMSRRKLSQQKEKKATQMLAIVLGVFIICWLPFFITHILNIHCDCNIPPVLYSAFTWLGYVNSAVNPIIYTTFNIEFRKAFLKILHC
Procedure: as §3, §4

PDE5 (h) (ns) = experiment: Enzyme assay PDE5 (h) (ns); assay type: biochemical, human
Description: as §1, §2

Row | SMILES | % Stimulation Relative to Control @ 10 μM (adenylyl cyclase (basal)) | % Inhibition of Control Specific Binding @ 10 μM (Neuropeptide Y (ns)) | inhibition at 10 µM (MAO-A (h)) | % Inhibition of Control Specific Binding @ 10 μM (Adrenergic α2 (ns)) | % Injected Radioactivity (%) [1] | % Recovered Radioactivity (%) [1] | Peak Area (mV) [1] | Peak Height (mV) [1] | inhibition at 10 µM (BLT1 (LTB4) (h)) | inhibition at 10 µM (Dopamine D2S (h)) | % Inhibition of Control Values @ 10 μM (PDE5 (h) (ns))
1 | CNC(=O)c1ccc(N2C(=O)N(c3ccc(C#N)c(C(F)(F)F)c3)C(=O)C2(C)C)cc1F [(MIV), 4-(3-(4-cyano-3-(trifluoromethyl)phenyl)-5,5-dimethyl-2,4-dioxoimidazolidin-1-yl)-2-fluoro-N-methylbenzamide] | 11% | −2% | 11% | −7% | 8.45% | 13.27% | 452 mV | 63 mV | -6% | -17% | 2%
2 | CC1(C)C(=O)N(c2ccc(C#N)c(C(F)(F)F)c2)C(=O)N1c1ccc(C(N)=O)c(F)c1 [(MIII), 4-(3-(4-cyano-3-(trifluoromethyl)phenyl)-5,5-dimethyl-2,4-dioxoimidazolidin-1-yl)-2-fluorobenzamide] | 4% | −2% | 14% | −7% | 7.96% | 12.50% | 426 mV | 77 mV | -4% | -22% | 8%
3 | CC1(C)C(=O)N(c2ccc(C#N)c(C(F)(F)F)c2)C(=S)N1c1ccc(C(=O)O)c(F)c1 [(MI), 4-(3-(4-cyano-3-(trifluoromethyl)phenyl)-5,5-dimethyl-4-oxo-2-thioxoimidazolidin-1-yl)-2-fluorobenzoic acid] | 0% | −6% | -5% | −7% | 11.02% | 17.31% | 589 mV | 86 mV | -15% | -16% | 4%
4 | CC1(C)C(=O)N(c2ccc(C#N)c(C(F)(F)F)c2)C(=S)N1c1ccc(C(N)=O)c(F)c1 [(MII), 4-(3-(4-Cyano-3-(trifluoromethyl)phenyl)-5,5-dimethyl-4-oxo-2-thioxoimidazolidin-1-yl)-2-fluorobenzamide] | 3% | −6% | 0% | −9% | 5.38% | 8.45% | 288 mV | 43 mV | -8% | -8% | −1%
